Paper PMC8550792, “Evolution of kinase polypharmacology across HSP90 drug discovery” (Cell Chemical Biology, 2021)

Experiments:
Assay in all cases: biochemical
Assay type in all cases: biochemical
382 unique human kinases [1] = biological target: T1, 382 unique human kinases (Homo sapiens, UniProt Q6P3R8); settings: NEK5, 10 uM; for remaining activity at 10 µM: read-out: % Enzyme Activity (relative to DMSO controls)
T1 construct: purchased Reaction Biology (HotSpot contract assay)
T1 sequence (Q6P3R8 1-708): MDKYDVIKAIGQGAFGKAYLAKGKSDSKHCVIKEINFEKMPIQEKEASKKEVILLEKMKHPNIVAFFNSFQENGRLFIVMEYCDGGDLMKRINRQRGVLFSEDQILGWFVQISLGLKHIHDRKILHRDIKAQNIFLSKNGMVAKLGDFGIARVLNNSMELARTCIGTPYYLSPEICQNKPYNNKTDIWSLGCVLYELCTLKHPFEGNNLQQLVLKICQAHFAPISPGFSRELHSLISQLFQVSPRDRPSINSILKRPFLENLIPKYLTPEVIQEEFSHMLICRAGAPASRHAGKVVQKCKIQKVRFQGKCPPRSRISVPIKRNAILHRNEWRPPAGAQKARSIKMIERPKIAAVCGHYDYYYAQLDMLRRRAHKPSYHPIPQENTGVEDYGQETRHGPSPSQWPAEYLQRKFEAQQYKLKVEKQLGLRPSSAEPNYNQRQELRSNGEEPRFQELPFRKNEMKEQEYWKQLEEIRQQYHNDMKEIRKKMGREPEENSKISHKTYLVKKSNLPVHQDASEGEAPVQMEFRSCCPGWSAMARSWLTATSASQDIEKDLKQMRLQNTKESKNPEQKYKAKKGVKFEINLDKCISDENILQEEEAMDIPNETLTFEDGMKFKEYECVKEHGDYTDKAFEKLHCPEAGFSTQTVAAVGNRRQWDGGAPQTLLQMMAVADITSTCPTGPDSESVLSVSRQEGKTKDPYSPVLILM

382 unique human kinases [2] = biological target: T2, 382 unique human kinases (Homo sapiens, UniProt Q9BUB5); settings: kinase MNK1, compound 10 uM; for remaining activity at 10 µM: read-out: % Enzyme Activity (relative to DMSO controls)
T2 construct: purchased Reaction Biology (HotSpot contract assay)

382 unique human kinases [3] = biological target: T3, 382 unique human kinases (Homo sapiens, UniProt Q56UN5); settings: kinase YSK4/MAP3K19, compound 10 uM; for remaining activity at 10 µM: read-out: % Enzyme Activity (relative to DMSO controls)
T3 construct: purchased Reaction Biology (HotSpot contract assay)
T3 sequence (Q56UN5 1-1328): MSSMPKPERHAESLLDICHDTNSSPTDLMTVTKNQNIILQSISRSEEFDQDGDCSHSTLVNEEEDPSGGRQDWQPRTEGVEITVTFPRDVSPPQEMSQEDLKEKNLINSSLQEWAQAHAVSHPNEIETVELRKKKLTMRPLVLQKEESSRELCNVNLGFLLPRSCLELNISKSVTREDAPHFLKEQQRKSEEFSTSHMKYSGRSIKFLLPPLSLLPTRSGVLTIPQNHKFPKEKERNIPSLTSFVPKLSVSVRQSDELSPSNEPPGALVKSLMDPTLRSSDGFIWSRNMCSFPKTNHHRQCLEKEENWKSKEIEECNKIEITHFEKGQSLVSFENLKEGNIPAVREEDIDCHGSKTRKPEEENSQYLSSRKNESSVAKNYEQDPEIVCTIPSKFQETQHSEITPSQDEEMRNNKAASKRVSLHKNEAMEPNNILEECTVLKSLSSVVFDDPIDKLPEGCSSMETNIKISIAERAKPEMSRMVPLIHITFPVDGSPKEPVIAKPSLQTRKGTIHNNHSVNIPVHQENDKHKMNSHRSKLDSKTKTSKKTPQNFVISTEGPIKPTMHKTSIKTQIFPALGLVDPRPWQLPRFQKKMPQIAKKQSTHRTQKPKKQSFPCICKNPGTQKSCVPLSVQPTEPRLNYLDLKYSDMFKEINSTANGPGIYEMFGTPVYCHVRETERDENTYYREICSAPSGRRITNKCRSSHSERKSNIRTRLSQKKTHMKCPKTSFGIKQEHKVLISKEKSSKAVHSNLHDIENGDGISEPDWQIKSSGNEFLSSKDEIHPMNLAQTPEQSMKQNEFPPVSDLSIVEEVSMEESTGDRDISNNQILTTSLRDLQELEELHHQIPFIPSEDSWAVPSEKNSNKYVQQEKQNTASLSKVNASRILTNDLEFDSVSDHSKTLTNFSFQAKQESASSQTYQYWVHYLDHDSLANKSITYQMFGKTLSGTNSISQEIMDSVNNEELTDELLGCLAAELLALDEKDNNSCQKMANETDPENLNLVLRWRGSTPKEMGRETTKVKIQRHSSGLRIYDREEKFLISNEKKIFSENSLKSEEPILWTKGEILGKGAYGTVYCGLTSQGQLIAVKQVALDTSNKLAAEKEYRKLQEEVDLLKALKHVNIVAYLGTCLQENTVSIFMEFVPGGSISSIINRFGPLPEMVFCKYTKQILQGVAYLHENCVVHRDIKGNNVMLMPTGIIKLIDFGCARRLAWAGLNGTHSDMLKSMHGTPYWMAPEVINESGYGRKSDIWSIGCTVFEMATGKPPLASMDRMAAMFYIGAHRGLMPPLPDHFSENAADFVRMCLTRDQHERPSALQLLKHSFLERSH

382 unique human kinases [4] = biological target: T4, 382 unique human kinases (Homo sapiens, UniProt Q9Y572); settings: RIPK3, [ATP] 2.5 µM, compound 10 uM; for remaining activity at 10 µM: read-out: % Enzyme Activity (relative to DMSO controls)
T4 construct: purchased Reaction Biology (HotSpot contract assay)

382 unique human kinases [5] = biological target: T5, 382 unique human kinases (Homo sapiens, UniProt Q9UM73, T1151M); settings: ALK (T1151M), [ATP] 50 µM, compound 10 uM; for remaining activity at 10 µM: read-out: % Enzyme Activity (relative to DMSO controls)
T5 construct: purchased Reaction Biology (HotSpot contract assay)

382 unique human kinases [6] = biological target: T6, 382 unique human kinases (Homo sapiens, UniProt Q9UBE8); settings: NLK, 10 uM; for remaining activity at 10 µM: read-out: % Enzyme Activity (relative to DMSO controls)
T6 construct: purchased Reaction Biology (HotSpot contract assay)
T6 sequence (Q9UBE8 1-527): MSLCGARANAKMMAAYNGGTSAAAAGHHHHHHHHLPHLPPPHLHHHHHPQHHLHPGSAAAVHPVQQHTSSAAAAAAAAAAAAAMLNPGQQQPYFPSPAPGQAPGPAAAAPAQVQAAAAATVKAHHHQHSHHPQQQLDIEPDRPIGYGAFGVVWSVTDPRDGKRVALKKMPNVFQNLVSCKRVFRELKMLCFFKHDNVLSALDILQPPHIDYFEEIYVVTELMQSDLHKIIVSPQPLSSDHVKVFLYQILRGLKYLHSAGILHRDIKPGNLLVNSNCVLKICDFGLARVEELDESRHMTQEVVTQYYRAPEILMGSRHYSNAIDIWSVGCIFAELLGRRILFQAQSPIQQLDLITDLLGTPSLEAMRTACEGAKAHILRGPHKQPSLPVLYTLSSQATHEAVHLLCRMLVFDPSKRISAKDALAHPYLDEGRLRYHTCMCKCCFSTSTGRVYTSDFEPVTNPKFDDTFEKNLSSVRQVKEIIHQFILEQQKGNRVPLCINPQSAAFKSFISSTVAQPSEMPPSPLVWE

382 unique human kinases [7] = biological target: T7, 382 unique human kinases (Homo sapiens, UniProt P68400); settings: CK2a, 10 uM; for remaining activity at 10 µM: read-out: % Enzyme Activity (relative to DMSO controls)
T7 construct: purchased Reaction Biology (HotSpot contract assay)
T7 sequence (P68400 whole entry): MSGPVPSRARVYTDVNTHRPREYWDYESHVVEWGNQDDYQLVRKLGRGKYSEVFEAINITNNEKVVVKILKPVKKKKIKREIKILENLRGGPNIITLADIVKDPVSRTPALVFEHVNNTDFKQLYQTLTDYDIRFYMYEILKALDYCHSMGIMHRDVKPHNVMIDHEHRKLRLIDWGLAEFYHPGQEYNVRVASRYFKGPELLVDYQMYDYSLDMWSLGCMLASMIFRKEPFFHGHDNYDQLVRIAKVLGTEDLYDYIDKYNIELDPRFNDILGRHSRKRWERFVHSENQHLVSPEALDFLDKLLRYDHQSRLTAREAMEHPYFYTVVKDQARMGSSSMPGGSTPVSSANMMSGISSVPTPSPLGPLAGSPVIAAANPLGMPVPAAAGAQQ

T2 sequence (Q9BUB5 whole entry): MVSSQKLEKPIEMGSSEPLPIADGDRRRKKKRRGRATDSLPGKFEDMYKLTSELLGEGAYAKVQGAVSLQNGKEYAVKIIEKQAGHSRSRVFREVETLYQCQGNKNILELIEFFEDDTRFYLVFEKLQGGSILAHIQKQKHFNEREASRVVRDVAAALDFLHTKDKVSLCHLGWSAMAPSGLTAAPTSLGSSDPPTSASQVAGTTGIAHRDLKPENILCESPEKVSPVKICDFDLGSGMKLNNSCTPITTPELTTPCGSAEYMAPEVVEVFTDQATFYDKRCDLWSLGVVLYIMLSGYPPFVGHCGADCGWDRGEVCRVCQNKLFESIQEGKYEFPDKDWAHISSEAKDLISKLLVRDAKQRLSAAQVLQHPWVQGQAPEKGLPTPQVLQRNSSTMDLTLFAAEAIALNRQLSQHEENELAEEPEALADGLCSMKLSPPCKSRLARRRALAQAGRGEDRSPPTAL
T5 sequence (Q9UM73 19-1620 T1151M): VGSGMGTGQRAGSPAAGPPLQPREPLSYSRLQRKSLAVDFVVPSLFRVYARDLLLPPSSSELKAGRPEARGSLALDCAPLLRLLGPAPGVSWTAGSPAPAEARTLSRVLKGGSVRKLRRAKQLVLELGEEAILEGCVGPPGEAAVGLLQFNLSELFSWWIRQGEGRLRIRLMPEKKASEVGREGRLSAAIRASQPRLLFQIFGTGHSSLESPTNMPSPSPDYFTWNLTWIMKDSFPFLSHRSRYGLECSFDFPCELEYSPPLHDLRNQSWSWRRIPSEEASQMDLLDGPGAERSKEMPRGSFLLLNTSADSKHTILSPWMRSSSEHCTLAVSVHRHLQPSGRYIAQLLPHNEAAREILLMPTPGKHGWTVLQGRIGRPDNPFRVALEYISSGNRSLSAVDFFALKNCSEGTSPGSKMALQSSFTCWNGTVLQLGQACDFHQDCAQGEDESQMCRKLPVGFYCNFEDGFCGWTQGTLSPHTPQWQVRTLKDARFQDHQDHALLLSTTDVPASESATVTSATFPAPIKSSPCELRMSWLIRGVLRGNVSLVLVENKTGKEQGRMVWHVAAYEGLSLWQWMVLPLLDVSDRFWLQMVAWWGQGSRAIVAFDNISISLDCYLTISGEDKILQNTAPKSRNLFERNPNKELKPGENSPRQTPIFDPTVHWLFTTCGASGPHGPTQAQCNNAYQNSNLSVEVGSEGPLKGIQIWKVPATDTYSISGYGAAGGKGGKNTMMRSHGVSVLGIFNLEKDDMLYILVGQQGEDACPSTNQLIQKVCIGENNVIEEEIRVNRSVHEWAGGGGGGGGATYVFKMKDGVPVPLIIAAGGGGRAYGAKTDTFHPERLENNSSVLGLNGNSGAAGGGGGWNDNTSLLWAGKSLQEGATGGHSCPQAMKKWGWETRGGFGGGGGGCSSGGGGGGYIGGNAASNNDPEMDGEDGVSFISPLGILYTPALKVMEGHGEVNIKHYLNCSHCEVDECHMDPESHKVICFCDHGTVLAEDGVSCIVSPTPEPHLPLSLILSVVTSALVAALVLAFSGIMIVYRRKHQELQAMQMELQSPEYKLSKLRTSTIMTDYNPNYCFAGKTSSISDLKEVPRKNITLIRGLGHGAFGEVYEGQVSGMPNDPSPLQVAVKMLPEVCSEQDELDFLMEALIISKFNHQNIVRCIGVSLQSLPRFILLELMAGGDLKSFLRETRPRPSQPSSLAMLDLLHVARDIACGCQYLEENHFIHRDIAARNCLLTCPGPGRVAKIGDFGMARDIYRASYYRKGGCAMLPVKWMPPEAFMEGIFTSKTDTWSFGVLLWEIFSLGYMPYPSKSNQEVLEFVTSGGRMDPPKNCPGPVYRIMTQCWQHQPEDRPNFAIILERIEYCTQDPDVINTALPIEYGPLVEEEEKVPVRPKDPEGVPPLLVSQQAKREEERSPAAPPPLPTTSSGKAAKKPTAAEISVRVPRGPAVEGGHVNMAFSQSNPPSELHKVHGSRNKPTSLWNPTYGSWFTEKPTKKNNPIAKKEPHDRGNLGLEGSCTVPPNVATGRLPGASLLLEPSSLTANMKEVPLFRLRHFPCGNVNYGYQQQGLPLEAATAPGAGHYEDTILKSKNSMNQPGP
T4 sequence (Q9Y572 whole entry): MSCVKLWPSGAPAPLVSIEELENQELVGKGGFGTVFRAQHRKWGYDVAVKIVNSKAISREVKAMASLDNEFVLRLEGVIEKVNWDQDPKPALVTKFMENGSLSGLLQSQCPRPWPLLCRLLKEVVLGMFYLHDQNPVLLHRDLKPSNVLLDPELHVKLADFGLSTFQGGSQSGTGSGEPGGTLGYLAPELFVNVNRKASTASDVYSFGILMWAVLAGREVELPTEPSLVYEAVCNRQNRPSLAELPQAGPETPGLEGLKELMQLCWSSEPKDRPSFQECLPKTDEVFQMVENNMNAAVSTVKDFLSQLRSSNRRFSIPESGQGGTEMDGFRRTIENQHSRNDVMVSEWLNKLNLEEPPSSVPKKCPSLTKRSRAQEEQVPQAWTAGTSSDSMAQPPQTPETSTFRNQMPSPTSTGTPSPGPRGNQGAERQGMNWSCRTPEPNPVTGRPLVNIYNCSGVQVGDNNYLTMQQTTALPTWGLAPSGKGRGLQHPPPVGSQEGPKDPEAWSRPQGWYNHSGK

Structure (SMILES) | remaining activity at 10 µM (382 unique human kinases [1]) [%] | remaining activity at 10 µM (382 unique human kinases [2]) [%] | remaining activity at 10 µM (382 unique human kinases [3]) [%] | remaining activity at 10 µM (382 unique human kinases [4]) [%] | remaining activity at 10 µM (382 unique human kinases [5]) [%] | remaining activity at 10 µM (382 unique human kinases [6]) [%] | remaining activity at 10 µM (382 unique human kinases [7]) [%] | % Enzyme Activity (relative to DMSO controls) (382 unique human kinases [1]) [%] | % Enzyme Activity (relative to DMSO controls) (382 unique human kinases [2]) [%] | % Enzyme Activity (relative to DMSO controls) (382 unique human kinases [3]) [%] | % Enzyme Activity (relative to DMSO controls) (382 unique human kinases [4]) [%] | % Enzyme Activity (relative to DMSO controls) (382 unique human kinases [5]) [%] | % Enzyme Activity (relative to DMSO controls) (382 unique human kinases [6]) [%] | % Enzyme Activity (relative to DMSO controls) (382 unique human kinases [7]) [%]
CC(C)c1cc(-c2n[nH]c(=O)n2-c2ccc3c(ccn3C)c2)c(O)cc1O [Ganetespib (STA9090)] | 105 | 79.3 | 85.8 | – | – | – | – | – | – | – | – | – | – | –
CC(C)c1cc(-c2n[nH]c(=O)n2-c2ccc3c(ccn3C)c2)c(O)cc1O [Ganetespib] | – | – | – | 59.1 | 45.5 | 94.8 | 101 | – | – | – | – | – | – | –
CCNC(=O)c1noc(-c2cc(C(C)C)c(O)cc2O)c1-c1ccc(CN2CCOCC2)cc1 [Luminespib (AUY-922)] | 70.4 | 106 | 88.7 | – | – | – | – | 66.42 | 105.09 | 85.23 | – | – | – | –
CCNC(=O)c1noc(-c2cc(C(C)C)c(O)cc2O)c1-c1ccc(CN2CCOCC2)cc1 [Luminespib] | – | – | – | 124 | 99.2 | 92.5 | 117 | – | – | – | 115.01 | 99.07 | 91.72 | 112.96
